What was measured:
[1] = target: KRas(G12V) (Homo sapiens (Human), UniProt P01116, G12V); assay: KRas(G12V) GDP HTRF (BODIPY-GDP exchange TR-FRET); format: biochemical
[2] = target: KRas (Homo sapiens (Human), UniProt P01116); assay: KRas GDP HTRF (BODIPY-GDP exchange TR-FRET); format: biochemical
Protocol: KRAS Biochemical Assay—BODIPY-GDP Exchange TR-FRET. Biochemical compound potencies were assessed by evaluating inhibition of SOS1-mediated nucleotide exchange in KRAS G12D. The SOS1-promoted exchange of fluorescently-labeled GDP (BODIPY-GDP) was monitored by time-resolved fluorescence resonance energy transfer (TR-FRET). Compounds solubilized in DMSO were dispensed as concentration series into 384-well white assay plates. […] The reaction was initiated with the addition of 5 μL of 3 nM recombinant human SOS1 and 300 nM BODIPY-GDP in assay buffer. After a 60-minute incubation, the fluorescence was measured with excitation at 337 nm and emission at 490 and 520 nm. The TR-FRET ratio was determined as the fluorescence at 520 nm divided by the fluorescence at 490 nm multiplied by 10,000. […] The normalized TR-FRET results were plotted against compound concentration, and the data fit to a 4-parameter Hill equation to determine the IC50 values.

Chain of KRas (P01116-2 other isoform, or with tags, fused parts or gaps): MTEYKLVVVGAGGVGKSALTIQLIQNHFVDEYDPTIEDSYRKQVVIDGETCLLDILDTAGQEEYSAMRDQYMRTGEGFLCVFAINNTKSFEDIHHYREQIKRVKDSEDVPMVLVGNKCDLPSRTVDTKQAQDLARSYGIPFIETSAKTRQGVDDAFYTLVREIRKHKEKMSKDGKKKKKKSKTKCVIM
Chain of KRas(G12V) (P01116-2 other isoform, or with tags, fused parts or gaps G12V): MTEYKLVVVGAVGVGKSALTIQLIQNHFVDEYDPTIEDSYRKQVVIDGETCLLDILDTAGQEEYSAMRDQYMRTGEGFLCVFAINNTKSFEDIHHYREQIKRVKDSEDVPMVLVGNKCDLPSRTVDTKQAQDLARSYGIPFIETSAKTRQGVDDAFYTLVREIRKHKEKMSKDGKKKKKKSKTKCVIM

| SMILES | IC50 [1] | IC50 [2] |
| --- | --- | --- |
| Cc1cc(N)nc(-c2c(Cl)c3c4c(nc(OC[C@@H]5CC[C@H]6CN(CC(F)(F)F)CCN56)nc4c2F)N([C@H](C)c2cccnc2N)CCO3)c1C(F)(F)F (atropisomer, axis not shown; (aS)) [Example 129a, 6-((R)-4-((R)-1-(2-aminopyridin-3-yl)ethyl)-8-chloro-10-fluoro-2-(((6S,8aS)-2-(2,2,2-trifluoroethyl)octahydropyrrolo[1,2-a]pyrazin-6-yl)methoxy)-5,6-dihydro-4H-[1,4]oxazepino[5,6,7-de]quinazolin-9-yl)-4-methyl-5-(trifluoromethyl)pyridin-2-amine] | 0.31 nM | 0.232 nM |
| Cc1cc(N)nc(-c2cc3ncnc4c3c(c2Cl)OCCN4C(C)(C)c2cccnc2N)c1C(F)(F)F [Example 27, 6-(4-(2-(2-aminopyridin-3-yl)propan-2-yl)-8-chloro-5,6-dihydro-4H-[1,4]oxazepino[5,6,7-de]quinazolin-9-yl)-4-methyl-5-(trifluoromethyl)pyridin-2-amine] | 580 nM | 1400 nM |
| Cc1cc(N)nc(-c2cc3ncnc4c3c(c2Cl)OCCN4C2CCc3ccncc32)c1C(F)(F)F (stereo not shown) [Example 21, 6-(8-chloro-4-(6,7-dihydro-5H-cyclopenta[c]pyridin-7-yl)-5,6-dihydro-4H-[1,4]oxazepino[5,6,7-de]quinazolin-9-yl)-4-methyl-5-(trifluoromethyl)pyridin-2-amine] | 1600 nM | 3400 nM |
| Cc1cc(N)nc(-c2cc3nc(OC[C@@]45CCCN4CC(F)(F)C5)nc4c3c(c2Cl)OCCN4C)c1C(F)(F)F [Example 10, (S)-6-(8-chloro-2-((2,2-difluorotetrahydro-1H-pyrrolizin-7a(5H)-yl)methoxy)-4-methyl-5,6-dihydro-4H-[1,4]oxazepino[5,6,7-de]quinazolin-9-yl)-4-methyl-5-(trifluoromethyl)pyridin-2-amine] | 300 nM | 1300 nM |
| Cc1cc(N)nc(-c2c(Cl)c3c4c(nc(OC[C@@]56CCCN5C[C@H](F)C6)nc4c2F)N([C@H](C)c2cc(F)cnc2N)CCO3)c1C(F)(F)F (atropisomer, axis not shown; (aS)) [Example 130a, 6-((R)-4-((R)-1-(2-amino-5-fluoropyridin-3-yl)ethyl)-8-chloro-10-fluoro-2-(((2R,7aS)-2-fluorotetrahydro-1H-pyrrolizin-7a(5H)-yl)methoxy)-5,6-dihydro-4H-[1,4]oxazepino[5,6,7-de]quinazolin-9-yl)-4-methyl-5-(trifluoromethyl)pyridin-2-amine] | 0.06 nM | 0.07 nM |
| Cc1cc(N)nc(-c2cc3nc(OCC4(N(C)C)COC4)nc4c3c(c2Cl)OCCN4Cc2cccnc2N)c1C(F)(F)F [Example 54, 6-(4-((2-aminopyridin-3-yl)methyl)-8-chloro-2-((3-(dimethylamino)oxetan-3-yl)methoxy)-5,6-dihydro-4H-[1,4]oxazepino[5,6,7-de]quinazolin-9-yl)-4-methyl-5-(trifluoromethyl)pyridin-2-amine] | 41 nM | 310 nM |
| Cc1cc(N)nc(-c2c(Cl)c3c4c(nc(OC[C@@H]5CC(F)(F)CN5C)nc4c2F)N([C@H](C)c2ccnnc2N)CCO3)c1C(F)(F)F (atropisomer, axis not shown) [Example 85, 4-((R)-1-((R)-9-(6-amino-4-methyl-3-(trifluoromethyl)pyridin-2-yl)-8-chloro-2-(((S)-4,4-difluoro-1-methylpyrrolidin-2-yl)methoxy)-10-fluoro-5,6-dihydro-4H-[1,4]oxazepino[5,6,7-de]quinazolin-4-yl)ethyl)pyridazin-3-amine] | 0.09 nM | 0.165 nM |
| Cc1cc(N)nc(-c2cc3ncnc4c3c(c2Cl)OCCN4C(C)c2cnc[nH]2)c1C(F)(F)F (stereo not shown) [Example 15, 6-(4-(1-(1H-imidazol-5-yl)ethyl)-8-chloro-5,6-dihydro-4H-[1,4]oxazepino[5,6,7-de]quinazolin-9-yl)-4-methyl-5-(trifluoromethyl)pyridin-2-amine] | 3600 nM | 31000 nM |
| Cc1cc(N)nc(-c2c(Cl)c3c4c(nc(OC[C@@H](C)N5CCOCC5)nc4c2F)N([C@H](C)c2cccnc2N)CCO3)c1C(F)(F)F (atropisomer, axis not shown) [Example 95b, 6-((R)-4-((R)-1-(2-aminopyridin-3-yl)ethyl)-8-chloro-10-fluoro-2-((R)-2-morpholinopropoxy)-5,6-dihydro-4H-[1,4]oxazepino[5,6,7-de]quinazolin-9-yl)-4-methyl-5-(trifluoromethyl)pyridin-2-amine] | 0.12 nM | 0.484 nM |
| Cc1cc(N)nc(-c2c(Cl)c3c4c(nc(OC(C)[C@@H]5CC(F)(F)CN5C)nc4c2F)N([C@H](C)c2cccnc2N)CCO3)c1C(F)(F)F (stereo partly drawn) [Example 71, 6-((R)-4-((R)-1-(2-aminopyridin-3-yl)ethyl)-8-chloro-2-((S)-1-((S)-4,4-difluoro-1-methylpyrrolidin-2-yl)ethoxy)-10-fluoro-5,6-dihydro-4H-[1,4]oxazepino[5,6,7-de]quinazolin-9-yl)-4-methyl-5-(trifluoromethyl)pyridin-2-amine] | 0.53 nM | 6.61 nM |
| Cc1cc(N)nc(-c2c(Cl)c3c4c(nc(OC[C@@H]5C[C@H]6COCCN65)nc4c2F)N([C@H](C)c2cccnc2N)CCO3)c1C(F)(F)F (atropisomer, axis not shown) [Example 99a, 6-((R)-2-(((6S,8S)-4-oxa-1-azabicyclo[4.2.0]octan-8-yl)methoxy)-4-((R)-1-(2-aminopyridin-3-yl)ethyl)-8-chloro-10-fluoro-5,6-dihydro-4H-[1,4]oxazepino[5,6,7-de]quinazolin-9-yl)-4-methyl-5-(trifluoromethyl)pyridin-2-amine] | 0.07 nM | 0.125 nM |
| Cc1cc(N)nc(-c2c(Cl)c3c4c(nc(OC[C@@H]5C[C@@]6(CN5C)CC6(F)F)nc4c2F)N([C@H](C)c2nccnc2N)CCO3)c1C(F)(F)F (atropisomer, axis not shown) [Example 171b, 3-((R)-1-((S)-9-(6-amino-4-methyl-3-(trifluoromethyl)pyridin-2-yl)-8-chloro-2-(((3S,6S)-1,1-difluoro-5-methyl-5-azaspiro[2.4]heptan-6-yl)methoxy)-10-fluoro-5,6-dihydro-4H-[1,4]oxazepino[5,6,7-de]quinazolin-4-yl)ethyl)pyrazin-2-amine] | 900 nM | 2090 nM |
| Cc1cc(N)nc(-c2c(Cl)c3c4c(nc(OC[C@@]56CCN5CC(F)(F)C6)nc4c2F)N([C@H](C)c2nccnc2N)CCO3)c1C(F)(F)F (single isomer, unassigned) [Example 162c] | 370 nM | 830 nM |
| Cc1cc(N)nc(-c2cc3ncnc4c3c(c2Cl)OCCN4CCC2COC2)c1C(F)(F)F [Example 14, 6-(8-chloro-4-(2-(oxetan-3-yl)ethyl)-5,6-dihydro-4H-[1,4]oxazepino[5,6,7-de]quinazolin-9-yl)-4-methyl-5-(trifluoromethyl)pyridin-2-amine] | 21000 nM | 200000 nM |
| Cc1cc(N)nc(-c2cc3ncnc4c3c(c2Cl)OCCN4Cc2cncc(N)c2)c1C(F)(F)F [Example 3, 6-(4-((5-aminopyridin-3-yl)methyl)-8-chloro-5,6-dihydro-4H-[1,4]oxazepino[5,6,7-de]quinazolin-9-yl)-4-methyl-5-(trifluoromethyl)pyridin-2-amine] | 540 nM | 2900 nM |
| Cc1cc(N)nc(-c2c(Cl)c3c4c(ncnc4c2F)N([C@H](C)c2cccnc2N)CCO3)c1C(F)(F)F (atropisomer, axis not shown) [Example 53b, 6-((S)-4-((R)-1-(2-aminopyridin-3-yl)ethyl)-8-chloro-10-fluoro-5,6-dihydro-4H-[1,4]oxazepino[5,6,7-de]quinazolin-9-yl)-4-methyl-5-(trifluoromethyl)pyridin-2-amine] | 600 nM | 2900 nM |
| Cc1cc(N)nc(-c2c(Cl)c3c4c(nc(OC[C@]56CCCN5CCOC6)nc4c2F)N([C@H](C)c2cccnc2N)CCO3)c1C(F)(F)F (atropisomer, axis not shown) [Example 128a, 6-((R)-4-((R)-1-(2-aminopyridin-3-yl)ethyl)-8-chloro-10-fluoro-2-(((R)-tetrahydro-1H-pyrrolo[2,1-c][1,4]oxazin-8a(6H)-yl)methoxy)-5,6-dihydro-4H-[1,4]oxazepino[5,6,7-de]quinazolin-9-yl)-4-methyl-5-(trifluoromethyl)pyridin-2-amine] | 0.09 nM | 0.149 nM |
| Cc1cc(N)nc(-c2cc3ncnc4c3c(c2Cl)OCCN4C(C)CO)c1C(F)(F)F (stereo not shown) [Example 16, 2-(9-(6-amino-4-methyl-3-(trifluoromethyl)pyridin-2-yl)-8-chloro-5,6-dihydro-4H-[1,4]oxazepino[5,6,7-de]quinazolin-4-yl)propan-1-ol] | 6900 nM | 32000 nM |
| Cc1cc(N)nc(-c2cc3nc(OC[C@]45CCCN4CC(F)(F)C5)nc4c3c(c2Cl)OCCN4C)c1C(F)(F)F [Example 7, (R)-6-(8-chloro-2-((2,2-difluorotetrahydro-1H-pyrrolizin-7a(5H)-yl)methoxy)-4-methyl-5,6-dihydro-4H-[1,4]oxazepino[5,6,7-de]quinazolin-9-yl)-4-methyl-5-(trifluoromethyl)pyridin-2-amine] | 420 nM | 2300 nM |
| Cc1cc(N)nc(-c2c(Cl)c3c4c(nc(OC[C@@H]5CC(F)(F)CN5C)nc4c2F)N([C@H](C)c2cncc(N)c2)CCO3)c1C(F)(F)F (single isomer, unassigned) [Example 70a] | 0.49 nM | 8.3 nM |

— patent US20240383915A1, “OXAZEPINE COMPOUNDS AND USES THEREOF IN THE TREATMENT OF CANCER” (Genentech, Inc., priority 2021, published 2024)
